Results: US8012481B2, “Composition and method for inducing or restoring locomotor functions in an animal” (Universite Laval, priority 2004, dated 2011)

What was measured:
Type in all cases: in vivo, mouse
[1] = test system: paraplegic mice; assay: Hindlimb movement generation in paraplegic mice, air-stepping and/or treadmill not separated; BBB and AOB scales; details: for effect of 5-HT1A antagonist pretreatment on 8-OH-DPAT-induced LM: antagonist 2 mg/kg; for induction of LM / induction of NLM: increasing doses, air-stepping and treadmill conditions, FIG. 13
Description: Animals and Treatment. We tested one hundred and ninety five (n=195) male and female adult CD1 and C57BL/6 mice weighing 30-40 grams prior to the study (Charles River Laboratory, St-Constant, Canada). […] Animals were spinalized 7 days prior to testing (exceptionally tested sometimes at 15 days post-spinalization, e.g., FIG. 17). A complete transection of the spinal cord was performed intervertebrally between the 9th and 10th vertebrae in isoflurane (2.5%) anesthetized animals. Complete spinalization was confirmed by 1) full paralysis of the hindlimbs, 2) post-mortem examination of the spinal cord microscopically and, in some cases, 3) staining transverse or sagittal spinal cord sections with luxol fast blue/cresyl violet for myelinated axons and nissl substance respectively. All mice received pre-operative care and post-operative care including lactate-Ringer's solution (2 ml/day, s.c.), analgesic (buprenorphine 0.2 mg/kg/day, s.c.) and antibiotic (baytril 5 mg/kg/day, s.c.). Bladders were emptied manually and animals were left in their cage without other interventions with food and water ad libitum until testing. Mice received a single injection (i.p.) of either 8-OHDPAT (5-HT1A/7); 5-CT (5-HT1A/7 agonist); buspirone (5-HT1A agonist); TFMPP (5-HT1B/2C agonist); quipazine (5-HT2B/2C); m-CPP (5-HT2B/2C agonist); SR-57227A (5-HT3) one week post-spinalization. […] The contribution of spinal 5-HT4/5/6 receptor activation to hindlimb movement generation in spinalized animals were not tested either because selective ligands are not available or because no significant expression levels have been found for these receptor subtypes in the mammalian spinal cord (see Schmidt and Jordan, Brain Res Bull 2000).
Hindlimb movement recording. Hindlimb movements were filmed (digital video camera 3 Com Home-connect, 30 frames/sec) immediately prior to injection and at fixed delays after injection in animals either suspended (air-stepping condition) or placed on a treadmill running at a speed of 8-10 cm/sec (treadmill condition). A harness was put around the torso and the waist either to completely suspend animals (air-stepping) or to maintain them in front of the camera on the treadmill (not weight support was provided). Animals were not stimulated otherwise. Locomotor-like movements were defined as rhythmic flexions and extensions occurring in both hindlimbs alternatively. Body weight support and plantar foot placement were facultative and therefore not required to be counted as locomotor-like (LM). In turn, non-locomotor movements (NLM) were defined as non-bilaterally alternating hindlimb movements most often including spasms, kicks, uncoordinated or unilateral movements, etc. In some cases, qualitative assessment methods were used to evaluate the level of induced hindlimb movements. The BBB locomotor scale (Basso, Bresnahan and Beattie, Exp Neurol 1996) and the AOB motor scale (Antri, Orsal and Barthe, Eur J Neurosci 2002) were also occasionally used.

[2] = test system: paraplegic mice (lumbar spinal cord circuitry for hindlimb locomotion); assay: Hindlimb movement generation (LM/NLM) on a motor-driven treadmill in complete spinal cord transected mice
Description: (§1) Animals and Treatment Thirty-two (n=32) male or female adult CD1 mice weighing 30-40 grams were tested prior to the study (Charles River Laboratory, St-Constant, Canada). The experiment was conducted in a Canadian Council on Animal Care approved facility in accordance with the CCAC Guide for Care and Use of Experimental Animals. Animals were spinalized 7-9 days prior to testing. A complete transection of the spinal cord was performed intervertebrally between the 9th and 10th vertebrae in isoflurane (2.5%) anesthetized animals. Complete spinalization was confirmed by 1) full paralysis of the hindlimbs, 2) post-mortem examination of the spinal cord microscopically and, in some cases, 3) staining transverse or sagittal spinal cord sections with luxol fast blue/cresyl violet for myelinated axons and nissl substance respectively. All mice received pre-operative care and post-operative care including lactate-Ringer's solution (2 ml/day, s.c.), analgesic (buprenorphine 0.2 mg/kg/day, s.c.) and antibiotic (baytril 5 mg/kg/day, s.c.). Bladders were emptied manually and animals were left in their cage without other interventions with food and water ad libitum until testing.
Hindlimb movement recording. Hindlimb movements were filmed (digital video camera 3 Com Home-connect, 30 frames/sec), 1) immediately prior to injection and, 2) at fixed delays after injection in animals placed on a treadmill running at a speed of 8-10 cm/sec (treadmill condition). A harness was put around the torso and the waist to maintain them in front of the camera on the treadmill (not weight support was provided). Animals were not stimulated otherwise. Hindlimb movements were assessed either as locomotor-like movements (LM) or non-locomotor movements (NLM) Locomotor-like movements were defined as rhythmic flexions and extensions occurring in both hindlimbs alternatively. Body weight support and plantar foot placement were facultative and therefore not required to be counted as locomotor-like (LM). In turn, non-locomotor movements (NLM) were defined as non-bilaterally alternating hindlimb movements most often including spasms, kicks, uncoordinated or unilateral movements, etc. Levels of weight supported movements and of plantar foot placements were assessed as either none, occasional, or frequent.
as §1, with “and Treatment. Twenty-nine (n=29)” for “and Treatment Thirty-two (n=32)”, “male and” for “male or”, “grams” for “grams were tested”, “spinalized 7” for “spinalized 7-9”, “(baytril” for “(baytril 5”
Hindlimb movement recording, Hindlimb movements were filmed (digital video camera 3 Com Home-connect, 30 frames/sec) immediately prior to injection and at fixed delays after injection in animals suspended (air-stepping condition) or placed on a treadmill running at a speed of 8-10 cm/sec (treadmill condition). A harness was put around the torso and the waist either to completely suspend animals (air-stepping) or to maintain them in front of the camera on the treadmill (not weight support was provided).

[3] = test system: paraplegic mice; assay: Hindlimb movement generation in the air-stepping condition (suspended) in spinal cord transected mice
Source text: Animals and Treatment. Twenty-nine (n=29) male and female adult CD1 mice weighing 30-40 grams prior to the study (Charles River Laboratory, St-Constant, Canada). […] Animals were spinalized 7 days prior to testing. […] Bladders were emptied manually and animals were left in their cage without other interventions with food and water ad libitum until testing. […] A harness was put around the torso and the waist either to completely suspend animals (air-stepping) or to maintain them in front of the camera on the treadmill (not weight support was provided). Animals were not stimulated otherwise. Animals and Treatment. […] Bladders were emptied manually and animals were left in their cage without other interventions with food and water ad libitum until testing. Mice received a single injection (i.p.) of either 8-OHDPAT (5-HT1A/7); 5-CT (5-HT1A/7 agonist); buspirone (5-HT1A agonist); TFMPP (5-HT1B/2C agonist); quipazine (5-HT2B/2C); m-CPP (5-HT2B/2C agonist); SR-57227A (5-HT3) one week post-spinalization. […] Hindlimb movement recording. […] A harness was put around the torso and the waist either to completely suspend animals (air-stepping) or to maintain them in front of the camera on the treadmill (not weight support was provided). Animals were not stimulated otherwise. Locomotor-like movements were defined as rhythmic flexions and extensions occurring in both hindlimbs alternatively. Body weight support and plantar foot placement were facultative and therefore not required to be counted as locomotor-like (LM). In turn, non-locomotor movements (NLM) were defined as non-bilaterally alternating hindlimb movements most often including spasms, kicks, uncoordinated or unilateral movements, etc. In some cases, qualitative assessment methods were used to evaluate the level of induced hindlimb movements. The BBB locomotor scale (Basso, Bresnahan and Beattie, Exp Neurol 1996) and the AOB motor […], Orsal and Barthe, Eur J Neurosci 2002) were also occasionally used.

[4] = test system: paraplegic mice (lumbar spinal cord circuitry for hindlimb locomotion); assay: Hindlimb movement generation (LM/NLM) on a motor-driven treadmill in complete spinal cord transected mice; details: for mice in which a mixture of LM and NLM was induced: 7 animals/group; for induction of LM: some NLM were found
[5] = L-DOPA 40-100 mg/kg, treadmill, n=29
[6] = single injection 0.5-2.5 mg/kg, i.p., CD1 mice 6-7 days post-spinalization, treadmill
[7] = i.p. prior to 8-OH-DPAT, both strains

CC1CCN(CC[C@H]2CCCN2S(=O)(=O)c2cccc(O)c2)CC1 [SB269970]
effect of 5-HT7 antagonist pretreatment on 8-OH-DPAT-induced movement frequencies, amplitudes and angular excursions ([1]; SB269970 2-15 mg/kg, i.p. prior to 8-OH-DPAT, both strains): importantly reduced

N[C@@H](Cc1ccc(O)c(O)c1)C(=O)O [L-DOPA, L-(−)-2-amino-3-(3,4-dihydroxyphenyl)propionic acid]
weight bearing locomotor capabilities ([2]; L-DOPA 40-100 mg/kg, treadmill, all cases): no weight bearing locomotor capabilities | LM per min (average) [2, 5]: 6.1±1.3 per min | NLM per min (average) [2, 5]: 11.2±1.8 per min | uneffective doses on treadmill ([2]; L-DOPA i.p. with benserazide (1:4), CD1 mice 7 days post-spinalization, treadmill 8-10 cm/sec): < 40 mg/kg | time following injection at which hindlimb movements began ([2]; one mouse (FIG. 6): 40 mg/kg L-DOPA, treadmill): 20 min | hindlimb movement generation in air-stepping ([3]; 40 mg/kg L-DOPA, 1-week paraplegic mouse, 20 min post-injection (no effect either 30 or 45 min later)): No hindlimb movements | hindlimb movement generation in air-stepping ([3]; 80 mg/kg L-DOPA, 28 min after injection): No movements | hindlimb movement generation in air-stepping ([3]; 30-100 mg/kg L-DOPA i.p. with benserazide (1:4), CD1 mice 7 days post-spinalization): did not induce hindlimb movements

NC[C@@H]1O[C@H](c2ccccc2)Cc2c1ccc(O)c2O [A-68930]
mice in which a mixture of LM and NLM was induced [4, 6]: 28%

COc1ccccc1N1CCN(CC(C(=O)NC(C)(C)C)c2ccccc2)CC1 (stereo not drawn) [WAY100,135]
effect of 5-HT1A antagonist pretreatment on 8-OH-DPAT-induced LM [1, 7]: significantly reduced

FC(F)(F)c1cccc(N2CCNCC2)c1 [TFMPP]
induction of LM ([1]; i.p.): not to induce LM | induction of NLM ([1]; i.p.): induced only NLM

Clc1cccc(N2CCNCC2)c1 [m-CPP]
induction of LM ([1]; i.p.): not to induce LM | induction of NLM ([1]; i.p.): dose-dependent non-locomotor movements were found

Cl.NC1CCN(c2cccc(Cl)n2)CC1 [SR-57227A]
type of hindlimb movements induced ([1]; SR-57227A i.p., air-stepping, open-field or treadmill): can induce only NLM | scores with the BBB and Antri motor scales ([1]; SR-57227A, FIG. 16): very low scores | score on Basso, Beattie and Bresnahan (1996) locomotor scale ([1]; SR-57227A, FIG. 16A): Non-significant scores | locomotor-like movements per min on a treadmill ([2]; SR-57227A, treadmill, in some animals): approx. 2.5 per min

c1ccc2nc(N3CCNCC3)ccc2c1 [quipazine]
times less LM than 8-OH-DPAT tested in similar conditions ([1]; quipazine, FIG. 9 vs. FIG. 15): 2-3 times | weight-supported stepping and plantar foot placement ([1]; quipazine, air-stepping or treadmill 8-10 cm/sec): No weight-supported stepping and plantar foot placement were found | number of movements of each type (LM, NLM) ([1]; quipazine, treadmill as well as air-stepping, FIG. 15): 8-15 | doses inducing some rhythmic LM in air-stepping ([3]; quipazine i.p., air-stepping condition, FIG. 14): above 0.8 mg/kg | ineffective doses ([3]; quipazine i.p., air-stepping, FIG. 14H): below 0.8 mg/kg

COc1ccccc1N1CCN(CCN(C(=O)C2CCCCC2)c2ccccn2)CC1 [WAY100,635]
effect of 5-HT1A antagonist pretreatment on 8-OH-DPAT-induced LM [1, 7]: significantly reduced

Cc1cccc(C(=O)NCN2CCN(c3ccccc3C#N)CC2)c1 [PD168077]
induction of LM [4, 6]: did not induce LM

Oc1cc2c(c(Cl)c1O)CCNCC2c1ccccc1 (stereo not drawn) [SKF-81297]
ACOS (averaged combined score = NLM+[LM×2]) [4, 6]: > 8 | mice in which a mixture of LM and NLM was induced [4, 6]: 71%

CN1CCc2cccc3c2[C@H]1Cc1ccc(O)c(O)c1-3 [apomorphine, (R)-5,6,6a,7-tetrahydro-6-methyl-4H-dibenzo-[de,g]quinoline-10,11-diol]
mice in which a mixture of LM and NLM was induced [4, 6]: 11%

CCCN(CCC)C1CCc2cccc(O)c2C1 (stereo not drawn) [8-OH-DPAT, 8-hydroxy-2-(di-n-propylamino)tetralin]
doses at which all-or-none-like effects (LM and NLM) start ([4]; 8-OH-DPAT i.p., spinal mice on a treadmill (FIG. 18), n=28): ≥ 1 mg/kg | induction of hindlimb movements ([1]; 8-OH-DPAT 1 mg/kg, i.p., CD1 and C57BI/6 mice seven days after transection): induced hindlimb alternated movements in most mice | weight supported steps or plantar foot placements ([1]; 8-OH-DPAT 1 mg/kg, i.p., seven days after transection): not found

CCCN(CCC)C1CCc2ccc(O)cc2C1 (stereo not drawn) [7-OH-DPAT]
induction of LM [4, 6]: did not induce LM
